Measurements published in ChEMBL document CHEMBL4715890, “Flavonoids from Sophora alopecuroides L. improve palmitate-induced insulin resistance by inhibiting PTP1B activity in vitro” (Bioorg Med Chem Lett, 2021).
In brackets after ≈: the same amount, converted by molar mass. Activity calls are given as the source filed them. The calls are words filed in the database; no cut-off is given here.

Tests used:
[1] = test system: C2C12; assay: Cytotoxicity against mouse C2C12 cells assessed as reduction in cell viability by MTT assay; assay type: cell-based; settings: for IC50: Mus musculus, C2C12; for IC10: mouse, c2c12
[2] = test system: C2C12; assay: Induction of glucose uptake in mouse C2C12 cells at 1 ug/ml; assay type: functional, cell-based
[3] = test system: C2C12; assay: Induction of glucose uptake in mouse C2C12 cells at 1 ug/ml in presence of insulin; assay type: functional, cell-based; settings: dose 1.0 µg/ml
[4] = target: T1, Tyrosine-protein phosphatase non-receptor type 1 (Mus musculus) (UniProt P35821); assay: Inhibition of PTP1B in mouse PA-induced insulin-resistance C2C12 cells assessed as increase in glucose consumption at 1 ug/ml in presence of insulin after 16 hrs; assay type: cell-based; settings: dose 1.0 µg/ml
T1 sequence (whole entry): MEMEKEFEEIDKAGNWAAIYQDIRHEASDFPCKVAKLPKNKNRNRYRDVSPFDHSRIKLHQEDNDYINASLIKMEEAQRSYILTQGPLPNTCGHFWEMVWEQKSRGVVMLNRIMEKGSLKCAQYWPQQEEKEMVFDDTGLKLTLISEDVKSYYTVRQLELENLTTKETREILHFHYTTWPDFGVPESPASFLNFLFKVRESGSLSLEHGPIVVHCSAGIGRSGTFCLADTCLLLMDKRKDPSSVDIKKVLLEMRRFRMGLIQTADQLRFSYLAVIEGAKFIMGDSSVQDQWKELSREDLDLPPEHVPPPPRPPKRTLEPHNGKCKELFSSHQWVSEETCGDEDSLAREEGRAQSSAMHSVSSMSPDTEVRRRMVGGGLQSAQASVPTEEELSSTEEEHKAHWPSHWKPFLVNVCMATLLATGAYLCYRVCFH

[5] = target: T2, Tyrosine-protein phosphatase non-receptor type 1 (Homo sapiens) (UniProt P18031); assay: Inhibition of PTP1B (unknown origin) at 0.1 ug/ml relative to control; settings: dose 0.1 µg/ml
T2 sequence (whole entry): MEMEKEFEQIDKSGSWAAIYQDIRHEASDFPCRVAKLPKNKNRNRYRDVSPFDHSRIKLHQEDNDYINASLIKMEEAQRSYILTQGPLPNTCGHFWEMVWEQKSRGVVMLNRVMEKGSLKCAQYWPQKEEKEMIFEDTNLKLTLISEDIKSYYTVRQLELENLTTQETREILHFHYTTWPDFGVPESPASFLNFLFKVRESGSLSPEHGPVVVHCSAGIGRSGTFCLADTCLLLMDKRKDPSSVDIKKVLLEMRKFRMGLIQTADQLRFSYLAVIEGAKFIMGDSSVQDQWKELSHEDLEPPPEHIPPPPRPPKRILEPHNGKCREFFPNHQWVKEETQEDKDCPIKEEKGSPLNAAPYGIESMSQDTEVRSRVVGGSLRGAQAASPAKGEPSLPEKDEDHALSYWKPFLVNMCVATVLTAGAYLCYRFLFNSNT

**Q.** What does the source list for `O=C(/C=C/c1ccc(O)c(O)c1)OC[C@H]1O[C@@H](Oc2ccc3c(=O)c(-c4ccc(O)cc4)coc3c2)[C@H](O)[C@@H](O)[C@@H]1O`?
**A.** IC50 [1]: 31.2 µg/mL (≈ 54 µM); IC10 [1]: 8.81 µg/mL (≈ 15.2 µM); Activity [2]: Active; Activity [3]: Active; Glucose consumption increase [4]: Active; inhibition [5]: 81.6%

**Q.** `O=c1c(O)c(-c2ccc(O)c(O)c2)oc2cc(O)cc(O)c12` [QUERCETIN] was tested. Which IC50 [1] did it give?
**A.** Its IC50 is 30.8 µg/mL (≈ 102 µM).

**Q.** What about the IC10 [1] of the same molecule?
**A.** The IC10 was 9.23 µg/mL (≈ 30.5 µM).

**Q.** Which results are given for `O=C(/C=C/c1ccc(O)c(O)c1)c1ccc(O)cc1O` [BUTEIN]?
**A.** IC50 [1]: 19 µg/mL (≈ 69.8 µM); IC10 [1]: 3.99 µg/mL (≈ 14.7 µM)

**Q.** With `COc1ccc(-c2cc(=O)c3c(O)cc(O[C@@H]4O[C@H](CO[C@@H]5O[C@@H](C)[C@H](O)[C@@H](O)[C@H]5O)[C@@H](O)[C@H](O)[C@H]4O)cc3o2)cc1O` [DIOSMIN] as the molecule, how does the IC50 [1] read?
**A.** The IC50 was 20 µg/mL (≈ 32.8 µM).

**Q.** And the IC10 [1]?
**A.** Its IC10 is 5.14 µg/mL (≈ 8.45 µM).

**Q.** With `O=c1cc(-c2ccc(O[C@@H]3O[C@H](CO)[C@@H](O)[C@H](O)[C@H]3O)c(O)c2)oc2cc(O)ccc12` as the molecule, how does the IC50 [1] read?
**A.** The IC50 was 29 µg/mL (≈ 67.1 µM).

**Q.** What about the IC10 [1] of the same molecule?
**A.** The IC10 was 5.85 µg/mL (≈ 13.5 µM).

**Q.** And the Activity [2]?
**A.** The Activity was “Active”.

**Q.** And the Activity [3]?
**A.** The Activity was “Active”.

**Q.** What about the Glucose consumption increase [4] of the same molecule?
**A.** The Glucose consumption increase was “Active”.

**Q.** And the inhibition [5]?
**A.** The inhibition was 68.9%.

**Q.** For `O=c1c(-c2ccc3c(c2)OCO3)coc2cc(O)ccc12` [PSEUDOBAPTOGENIN], which IC50 [1] is on record?
**A.** The IC50 was 12.1 µg/mL (≈ 42.8 µM).

**Q.** What about the IC10 [1] of the same molecule?
**A.** The IC10 was 3.49 µg/mL (≈ 12.4 µM).

**Q.** And the Activity [2]?
**A.** The Activity was “Active”.

**Q.** What about the Activity [3] of the same molecule?
**A.** The Activity was “Active”.

**Q.** And the Glucose consumption increase [4]?
**A.** Its Glucose consumption increase is “Active”.

**Q.** For `COc1cc(O)c2c(=O)c(-c3ccc(O)c(OC)c3)coc2c1`, which IC50 [1] is on record?
**A.** The IC50 was 32.5 µg/mL (≈ 103 µM).

**Q.** What about the IC10 [1] of the same molecule?
**A.** The IC10 was 6.93 µg/mL (≈ 22 µM).

**Q.** And the Activity [2]?
**A.** Its Activity is “Active”.

**Q.** And the Activity [3]?
**A.** Its Activity is “Active”.

**Q.** And the Glucose consumption increase [4]?
**A.** The Glucose consumption increase was “Active”.

**Q.** What about the inhibition [5] of the same molecule?
**A.** The inhibition was 70.1%.

**Q.** Which IC50 [1] does the source give for `O=c1c(-c2ccc(O)cc2)coc2cc(O[C@@H]3O[C@H](CO[C@@H]4OC[C@@H](O)[C@H](O)[C@H]4O)[C@@H](O)[C@H](O)[C@H]3O)cc(O)c12` here?
**A.** Its IC50 is 34.2 µg/mL (≈ 60.5 µM).

**Q.** What about the IC10 [1] of the same molecule?
**A.** Its IC10 is 6.07 µg/mL (≈ 10.8 µM).

**Q.** What about the Activity [2] of the same molecule?
**A.** The Activity was “Active”.

**Q.** What about the Activity [3] of the same molecule?
**A.** The Activity was “Active”.

**Q.** And the Glucose consumption increase [4]?
**A.** Its Glucose consumption increase is “Active”.

**Q.** And the inhibition [5]?
**A.** Its inhibition is 88.8%.

**Q.** Which IC50 [1] does the source give for `O=c1c(-c2ccc3c(c2)OCO3)coc2cc(O[C@@H]3O[C@H](CO)[C@@H](O)[C@H](O)[C@H]3O)ccc12` here?
**A.** The IC50 was 13.5 µg/mL (≈ 30.3 µM).

**Q.** What about the IC10 [1] of the same molecule?
**A.** The IC10 was 4.18 µg/mL (≈ 9.41 µM).

**Q.** Which results are given for `COc1cc(/C=C/C(=O)OC[C@H]2O[C@@H](Oc3ccc4c(=O)c(-c5ccc(O)c(O)c5)coc4c3)[C@H](O)[C@@H](O)[C@@H]2O)ccc1O`?
**A.** IC50 [1]: 24.3 µg/mL (≈ 40 µM); IC10 [1]: 7.36 µg/mL (≈ 12.1 µM); Activity [2]: Active; Activity [3]: Active; Glucose consumption increase [4]: Active; inhibition [5]: 95.2%

**Q.** How did the IC50 [1] turn out when `COc1cc(O)c2c(=O)c(-c3ccc(O)cc3)coc2c1` [PRUNETIN] was run?
**A.** The IC50 was 23.2 µg/mL (≈ 81.8 µM).

**Q.** What about the IC10 [1] of the same molecule?
**A.** Its IC10 is 7.19 µg/mL (≈ 25.3 µM).

**Q.** What about the Activity [2] of the same molecule?
**A.** Its Activity is “Active”.

**Q.** And the Activity [3]?
**A.** The Activity was “Active”.

**Q.** What about the Glucose consumption increase [4] of the same molecule?
**A.** Its Glucose consumption increase is “Active”.

**Q.** Which results are given for `O=C(/C=C/c1ccccc1)c1ccc(O)cc1O` [2',4'-DIHYDROXYCHALCONE]?
**A.** IC50 [1]: 32.3 µg/mL (≈ 134 µM); IC10 [1]: 6.14 µg/mL (≈ 25.6 µM); Activity [2]: Active; Activity [3]: Active

**Q.** With `O=C(/C=C/c1ccc(O)c(O)c1)c1ccc(O[C@@H]2O[C@H](CO)[C@@H](O)[C@H](O)[C@H]2O)cc1O` as the molecule, how does the IC50 [1] read?
**A.** The IC50 was 20.8 µg/mL (≈ 47.9 µM).

**Q.** What about the IC10 [1] of the same molecule?
**A.** The IC10 was 4.39 µg/mL (≈ 10.1 µM).

**Q.** Which results are given for `O=c1cc(-c2ccc(O)cc2)oc2cc(O)cc(O)c12` [APIGENIN]?
**A.** IC50 [1]: 26.6 µg/mL (≈ 98.4 µM); IC10 [1]: 4.96 µg/mL (≈ 18.4 µM); Activity [2]: Active; Activity [3]: Active

**Q.** Which IC50 [1] does the source give for `O=c1cc(-c2ccc(O)c(O)c2)oc2cc(O[C@@H]3O[C@H](CO)[C@@H](O)[C@H](O)[C@H]3O)ccc12` here?
**A.** Its IC50 is 40 µg/mL (≈ 92.6 µM).

**Q.** What about the IC10 [1] of the same molecule?
**A.** Its IC10 is 10.07 µg/mL (≈ 23.3 µM).

**Q.** And the Activity [2]?
**A.** The Activity was “Active”.

**Q.** What about the Activity [3] of the same molecule?
**A.** Its Activity is “Active”.

**Q.** What about the Glucose consumption increase [4] of the same molecule?
**A.** The Glucose consumption increase was “Active”.

**Q.** And the inhibition [5]?
**A.** Its inhibition is 68.9%.

**Q.** Which results are given for `O=C(/C=C/c1ccc(O)cc1)c1ccc(O)cc1O` [ISOLIQUIRITIGENIN]?
**A.** IC50 [1]: 26.3 µg/mL (≈ 103 µM); IC10 [1]: 7.43 µg/mL (≈ 29 µM); Activity [2]: Active; Activity [3]: Active
